Read-outs that look alike come from different tables or passages of the source.
Key:
in vitro = type: cell-based, human; settings: human
Protocol: (§1) Cytotoxicity of the analyzed compounds was determined by the Neutral Red dye uptake assay. A total of 1.35 × 10^5 HFFs per well were seeded in 96-well plates 1 d prior to analysis, cultivated overnight until cells were confluent and then incubated with compounds for 7 days. The assay was performed as described previously using 40 μg/mL Neutral Red (Sigma Aldrich). The quantity of dye incorporation was determined using the Victor X4 microplate reader (PerkinElmer, Waltham, MA, USA) by fluorescence measurement at 560/630 nm for excitation/emission, respectively. To assess antiviral activity of compounds, HFFs seeded in 96-well plates (1.35 × 10^5 HFFs per well) were infected with HCMV AD169-GFP or TB40-IE2-YFP to reach 25–50% infected cells at 7 days post-infection (d p.i.). After incubation with the infectious inoculum for 1.5 h at 37 °C, compounds were added in serial dilutions. At 7 d p.i., cells were fixed for 10 min at room temperature using 10% formalin. Finally, cells were washed once with PBS followed by automated fluorescence quantitation.

HCMV AD169-GFP = experiment: microbe, parasite or virus in culture; type: cell-based, human cytomegalovirus (HCMV); settings: for EC50: Human betaherpesvirus 5, AD169, 168 h; for SI: selectivity index CC50/EC50, AD169-GFP
Protocol: as §1
Seeking for a novel group of potential antiviral agents, small molecules with covalent protein-binding activity were investigated. These small molecules, originally developed as kinase inhibitors, carry a so-called warhead moiety as an important functional group, such as the prototype afatinib (Figure 1A, red circle). In this study, a series of newly generated warhead compounds (most of which are the property of B.K./Lead Discovery Center, Dortmund, Germany) were used for an evaluation of putative antiviral and core NEC-inhibitory properties. In a first step, the antiviral activity of warheads was analyzed against HCMV TB40-IE2-YFP (Figure 1B) and AD169-GFP (Figure 1C). To this end, HFFs were infected with either of the two viral strains before the GFP or YFP reporter signals were measured at 7 d p.i. (in parallel, putative compound cytotoxicity was determined by Neutral Red assay). The HCMVs AD169-GFP and TB40-IE2-YFP, based on BAC-derived recombinants of the laboratory strains AD169 and TB40, respectively, were both propagated on HFFs, and the produced stocks were then used as two reporter viruses for the assessement of antiviral drug activity. While strain AD169 is mainly restricted in its tropism to fibroblasts, TB40 tropism can be extended to fibroblasts and epithelial and endothelial cells. Here, the use of two strains was intended to illustrate the assumption that antiviral activity of these warhead compounds may be directed to conserved viral target proteins, thus pointing out a minor impact of strains.
(A) Chemical structure of a clinically approved prototype of covalently binding warhead inhibitors, […], afatinib/Gilotrif®. The red circle identifies a functionally active α-, β-unsaturated carbonyl group. (B) At 7 d p.i., compounds were analyzed for their cytotoxicity (orange) and antiviral activity (blue) during HCMV infection, using TB40-IE2-YFP as a reporter virus. Cell viability was assessed through Neutral Red staining of uninfected cells. Measurements were performed in quadruplicate (YFP fluorometry) or triplicate (Neutral Red assay), and standard deviations of mean values are given; EC50, CC50 and SI values are indicated accordingly. (C) In a parallel series of analyses, HCMV AD169-GFP was used as another reporter virus representing a second viral strain. […] HCMV AD169-GFP-infected HFFs were treated with 0.1 µM to 50 µM of the compounds (in parallel Neutral Red assay, 0.1 µM to 100 µM), before the signal assessments were performed at 7 d p.i.

[1] = target: T1, pUL50–pUL53 interaction (LgBiT::UL53-Flag + SmBiT::UL50-HA) (Human cytomegalovirus, UniProt P16791); type: cell-based; settings: 293T cells, 5×, 1× or 0.2× anti-HCMV EC50 levels, full-length LgBiT::UL53-Flag
T1 construct: expressed in transfected cells; host or cells: 293T

[2] = target: T2, pUL50–pUL53 interaction (LgBiT::UL53(1–87)-Flag + SmBiT::UL50-HA) (Human cytomegalovirus, UniProt P16791); type: cell-based; settings: 293T cells, 5×, 1× or 0.2× anti-HCMV EC50 levels, truncated LgBiT::UL53(1–87)-Flag
T2 construct: expressed in transfected cells; host or cells: 293T

SmBiT::UL50-HA = target: T3, SmBiT::UL50-HA (human cytomegalovirus (HCMV), UniProt P16791 1-397); experiment: split reporter (BiFC, NanoBiT); NanoBiT in 293T cells cotransfected with LgBiT and SmBiT constructs; NanoGlo Live Cell Assay, luminescence at 37 °C; background of LgBiT without SmBiT subtracted; some samples with warhead compounds (LDC compounds, ibrutinib and others); settings: partners not purified
T3 construct: also called pUL50; HCMV core NEC groove protein; source: 293T cells, transiently transfected (PEI), in live cells
T3 sequence: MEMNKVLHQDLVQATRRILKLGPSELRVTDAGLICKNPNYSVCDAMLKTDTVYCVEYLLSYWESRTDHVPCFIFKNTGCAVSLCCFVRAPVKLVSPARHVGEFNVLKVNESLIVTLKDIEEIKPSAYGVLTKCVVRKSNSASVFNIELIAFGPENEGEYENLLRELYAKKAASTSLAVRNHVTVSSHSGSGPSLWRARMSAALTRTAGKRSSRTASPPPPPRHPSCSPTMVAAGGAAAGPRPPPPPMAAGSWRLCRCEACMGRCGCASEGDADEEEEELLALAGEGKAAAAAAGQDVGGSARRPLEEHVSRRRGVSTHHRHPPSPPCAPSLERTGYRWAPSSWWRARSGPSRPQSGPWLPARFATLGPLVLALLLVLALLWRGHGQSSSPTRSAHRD

[3] = AD169-GFP-infected HFFs, 7 d p.i., 0.1 µM to 50 µM
[4] = clinically relevant warheads, 0.1 µM to 50 µM, AD169-GFP-infected HFFs, 7 d p.i.

| Molecule | CC50 at 7 days (in vitro; CC50) [µM] | antiviral activity (in words) (HCMV AD169-GFP; [3]) | EC50 (HCMV AD169-GFP; [4]) [µM] | SI (HCMV AD169-GFP; clinically relevant warheads) | also measured |
| --- | --- | --- | --- | --- | --- |
| CCN(CC)C(=O)/C(C#N)=C/c1cc(O)c(O)c([N+](=O)[O-])c1 [entacapone] | 93 ± 4 | no notable antiviral activity | > 50 | inactive |  |
| CCOc1cc2ncc(C#N)c(Nc3ccc(OCc4ccccn4)c(Cl)c3)c2cc1NC(=O)/C=C/CN(C)C [neratinib] | 37 ± 1 |  | 0.3 ± 0.1 |  |  |
| C=CC(=O)Nc1cc(Nc2nccc(-c3cn(C)c4ccccc34)n2)c(OC)cc1N(C)CCN(C)C [osimeritinib] |  |  | 1 ± 0.8 |  | inhibitory effect on NanoBiT interaction signal (in words) [1]: very minor or no effects; CC50 at 7 days (in vitro; clinically relevant warheads, 0.1 µM to 100 µM, Neutral Red, uninfected HFFs, 7 d, read-out: CC50): 23 µM; inhibitory effect on NanoBiT interaction signal (in words) [2]: very minor or no effects |
| C=C1C(=O)O[C@H]2[C@H]1CC/C(C)=C/CC[C@@]1(C)O[C@@H]21 [parthenolide] | 9 ± 0.4 | no notable antiviral activity | 6.7 ± 3.4 |  |  |
| C=CC(=O)N1CCN(c2nc(=O)n(-c3c(C)ccnc3C(C)C)c3nc(-c4c(O)cccc4F)c(F)cc23)[C@@H](C)C1 [sotorasib] | 95 ± 12 | no notable antiviral activity | > 50 | inactive |  |
| COC[C@H]1OC(=O)c2coc3c2[C@@]1(C)C1=C(C3=O)[C@@H]2CCC(=O)[C@@]2(C)C[C@H]1OC(C)=O [wortmannin] |  | no notable antiviral activity |  | inactive | CC50 at 7 days (in vitro): > 100 µM; EC50 (HCMV AD169-GFP): > 50 µM |
| LgBiT::UL53(1–87)-Flag (domain or fragment, source: 293T cells, transiently transfected (PEI), in live cells) MSSVSGVRTPRERRSALRSLLRKRRQRELASKVASTVNGATSANNHGEPPSPADARPRLTLHDLHDIFREHPELELKYLNMMKMAIT |  |  |  |  | NanoBiT signal strength relative to LgBiT::UL53-Flag + SmBiT::UL50-HA (100%) (SmBiT::UL50-HA): 288% |

Reference: PMC10137179, “Assessment of Covalently Binding Warhead Compounds in the Validation of the Cytomegalovirus Nuclear Egress Complex as an Antiviral Target” (Cells, 2023)
